According to ChEMBL document CHEMBL1201862, “PubChem BioAssay data set” (2004):
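All cell lines were grown in 96-well plates and treated with compound for 48 hours. Here, GI50 denotes the concentration required for 50% inhibition of growth.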 The source made the active and inactive calls. No stated cut-off is given here; in the data, active = GI50 up to about 1.1 µM and inactive = higher.

Columns and labels:
Test in all cases: DTP human tumour cell line panel, 48 h
[1] = test system: KM12
[2] = test system: Malme-3M
[3] = test system: HOP-92
[4] = test system: MOLT-4
[5] = test system: U-251
[6] = test system: OVCAR-5
[7] = test system: BT-549
[8] = test system: NCI/ADR-RES
[9] = test system: SN12C
[10] = test system: OVCAR-4
[11] = test system: SF-268
[12] = test system: M14
[13] = test system: A549
[14] = test system: SK-MEL-2
[15] = test system: COLO 205
[16] = test system: SF-539
[17] = test system: SK-MEL-28
[18] = test system: LOX IMVI
[19] = test system: A498

Measured: GI50

O=C(O)c1cc2ccccc2c(/N=N/c2ccc(S(=O)(=O)Nc3ccccn3)cc2)c1O
inactive: [1] > 100 µM | [2] > 100 µM | [3] > 100 µM | [4] > 100 µM | [5] > 100 µM | [6] > 100 µM | [7] > 100 µM | [8] > 100 µM | [9] > 100 µM | [10] > 100 µM | [11] > 100 µM | [12] > 100 µM | [13] > 100 µM | [14] > 100 µM | [15] > 100 µM | [16] > 100 µM | [17] > 100 µM

Cc1ccc(/C=C/C(=N/NC(=O)N/N=C(/C=C/c2ccc(C)cc2)C(C)C)C(C)C)cc1
inactive: [1] > 10 µM | [2] > 10 µM | [3] > 10 µM | [4] > 10 µM | [5] > 10 µM | [6] > 10 µM | [7] > 10 µM | [8] > 10 µM | [9] 9.77 µM | [10] 1.5 µM | [11] > 10 µM | [12] > 10 µM | [13] > 10 µM | [14] > 10 µM | [15] > 10 µM

O=[N+]([O-])C(C(Cl)=C(Cl)Cl)=C(N1CCCCC1)N1CCCCC1
inactive: [18] 55 µM | [1] > 100 µM | [2] 39.5 µM | [4] 33.7 µM | [5] > 100 µM | [6] > 100 µM | [7] > 100 µM | [8] > 100 µM | [9] > 100 µM | [10] > 100 µM | [11] > 100 µM | [12] > 100 µM | [13] > 100 µM | [19] > 100 µM | [15] > 100 µM | [16] > 100 µM | [17] > 100 µM

NC1CC(=O)c2cc(Cl)sc21 (stereo unspecified)
inactive: [18] > 100 µM | [1] > 100 µM | [2] > 100 µM | [3] > 100 µM | [5] > 100 µM | [6] > 100 µM | [7] > 100 µM | [8] > 100 µM | [9] > 100 µM | [10] > 100 µM | [11] > 100 µM | [12] > 100 µM | [13] > 100 µM | [14] > 100 µM | [15] > 100 µM | [16] > 100 µM | [17] > 100 µM

O=C(NNc1cn[nH]c(=O)c1Cl)/C(=C/c1ccc2c(c1)OCO2)NC(=O)c1ccccc1
inactive: [18] 30.9 µM | [1] 34.7 µM | [3] > 100 µM | [4] 33.4 µM | [5] 53.5 µM | [6] > 100 µM | [7] 18.5 µM | [8] 35.6 µM | [9] 50 µM | [10] 32.8 µM | [12] 61.8 µM | [13] > 100 µM | [14] 51.9 µM | [15] 46.9 µM | [16] 40.7 µM | [17] 74.3 µM

Nc1c(C(=O)O)nnc2cc(Cl)ccc12
inactive: [18] > 100 µM | [1] > 100 µM | [2] > 100 µM | [4] > 100 µM | [5] > 100 µM | [6] > 100 µM | [7] > 100 µM | [8] > 100 µM | [9] > 100 µM | [10] > 100 µM | [11] > 100 µM | [12] > 100 µM | [13] > 100 µM | [14] > 100 µM | [19] 85.3 µM | [15] > 100 µM | [16] > 100 µM

Brc1cc2nn(-c3ccccc3)nc2c2nonc12
inactive: [18] > 100 µM | [1] > 100 µM | [2] > 100 µM | [3] > 100 µM | [4] > 100 µM | [5] > 100 µM | [6] > 100 µM | [7] > 100 µM | [8] > 100 µM | [9] > 100 µM | [10] > 100 µM | [11] > 100 µM | [12] > 100 µM | [13] > 100 µM | [14] > 100 µM | [15] > 100 µM | [16] > 100 µM | [17] > 100 µM

O=c1oc2ccc3ccccc3c2cc1-c1cn2ccccc2n1
inactive: [18] 91.8 µM | [1] 57.7 µM | [3] 90.6 µM | [4] > 100 µM | [5] 24.2 µM | [7] > 100 µM | [8] > 100 µM | [9] 48.1 µM | [11] 80.5 µM | [12] > 100 µM | [13] 24.7 µM | [14] > 100 µM | [15] > 100 µM | [16] 25.9 µM | [17] > 100 µM

COc1cc(N(CCC#N)CCC#N)ccc1C(=N/NC(=O)c1cc(Br)ccc1O)/N=N/c1ccc(C)cc1
inactive: [18] 17.9 µM | [1] 17 µM | [2] 29.3 µM | [3] 20.8 µM | [4] 14 µM | [5] 37.4 µM | [6] 61.4 µM | [7] 18 µM | [8] 27.1 µM | [9] 17.3 µM | [10] 18.4 µM | [11] 15.4 µM | [12] 28.3 µM | [13] 28.8 µM | [14] 23.7 µM | [15] 15.7 µM | [16] 29 µM | [17] 25.1 µM

O=C(N/C(=C/c1ccc(Cl)cc1Cl)c1nc2ccccc2s1)c1ccccc1
inactive: [18] 5.32 µM | [1] 13.2 µM | [2] 16.4 µM | [3] 52.6 µM | [4] 14.3 µM | [5] 2.5 µM | [6] 17.3 µM | [7] 21.1 µM | [8] 15.6 µM | [9] 9.68 µM | [10] 15.5 µM | [11] 14 µM | [12] 17.7 µM | [13] 18.1 µM | [14] 17.7 µM | [15] 18.3 µM | [16] 15.5 µM | [17] 15.6 µM

Cc1cc(S(=O)(=O)N=C2NCC(C)(C)CN2)c(S)cc1Cl
inactive: [18] 15.5 µM | [1] 30.8 µM | [2] 44.7 µM | [5] 23.7 µM | [6] 23.1 µM | [7] 29.5 µM | [8] 50.8 µM | [9] 47.1 µM | [10] 17.6 µM | [11] 73.3 µM | [12] 31.9 µM | [13] 19 µM | [14] 21.3 µM | [19] > 100 µM | [15] 47.3 µM | [16] 40.6 µM | [17] 36.6 µM

O=C(O)Cn1nnc2c(=O)[nH][nH]c(=O)c21
inactive: [18] > 100 µM | [1] > 100 µM | [2] > 100 µM | [3] > 100 µM | [4] > 10 µM | [5] > 100 µM | [6] > 100 µM | [7] > 100 µM | [8] > 100 µM | [9] > 100 µM | [10] > 10 µM | [12] > 100 µM | [13] > 100 µM | [14] > 100 µM | [15] > 100 µM | [17] > 100 µM
